Here are results for seven molecules from patent US20240207202A1, “COMBINATION THERAPIES TARGETING MITOCHONDRIAL BIOGENESIS FOR CANCER THERAPY” (The Wistar Institute of Anatomy and Biology, priority 2015, published 2024).

The subject of assay [1] is CCLE melanoma cell lines with BRAFV600 mutations. The settings on record: MitoB high vs low subgroups, two sample t-test; cited from earlier work.
Assay [2] concerns MitoBiogenesis. The settings on record: Malme-3M and COLO829, 8 h; public gene expression microarray data; cited from earlier work.
Assay [3] has as its system 1205Lu melanoma xenograft. As to the kind of experiment: Tumor volume of 1205Lu melanoma xenografts. The class given is in vivo, mice. The note with it: 1205Lu xenografts.
Assay [4] has as its system mitochondrial respiratory chain complex subunits. As to the kind of experiment: Expression of mitochondrial respiratory chain complex subunits in WM9 cells (qRT-PCR, RPPA, immunoblot). Format: cell-based, human. The settings on record: qRT-PCR. The method, then: One μg total mRNA was reverse transcribed using a Maxima First Strand cDNA Synthesis Kit for qRT-PCR (Thermo Fisher). Fast SYBR® Green Master Mix (Life Technologies) was used with cDNA template and primers to evaluate the expression of target genes and GAPDH. Primers used were purchased from Integrated DNA Technologies. Amplifications were performed using an Applied Biosystems® 7500 Real-Time PCR System (Life Technologies). All experiments were performed in triplicate. Expression ratios of controls were normalized to 1. Please see Extended Experimental Procedures for the list of PCR primer sequences. The raw data of gene expression microarrays generated from Illumina Chips were normalized, background-corrected and summarized using the R package “lumi” (Du et al., 2008). […] To reduce false positives, the unexpressed probes were removed. The R package “limma” (Smyth, 2004, 2005) was employed for gene differential expression analysis, followed by multiple test correction by the Benjamini and Hochberg procedure (Benjamini and Hochberg, 1995). […] We also conducted GSEA as previously reported (Subramanian et al., 2005). For GSEA, we analyzed gene sets obtained from the Molecular Signatures Database (broadinstitute.org/gsea/msigdb/). The same differential expression analysis method was applied to RPPA data. Cells were washed with ice-cold PBS containing 100 μM Na3VO4 and scraped off culture dishes. After centrifugation, cell pellets were lysed in buffer containing 10 mM Tris-HCl, pH 7.8, 150 mM NaCl, 1 mM EDTA, 1% Nonidet P-40, 1 mM Na3VO4 and protease inhibitors (Roche complete protease inhibitor tablets). Lysates were cleared by micro-centrifugation and protein concentrations were determined with Protein Assay Dye Reagent Concentrate (Bio-Rad). For western blots, 25 μg of each lysate were run on 15-well 10% or 12% SDS-PAGE gels and transferred onto nitrocellulose membranes using a dye fast Trans-BlotR Turbo™ transfer system (Bio-Rad). Blots were blocked in SEA BLOCK Blocking Buffer (Thermo Scientific) diluted with 1×TBS at 1:1 ratio at room temperature for 1 h, incubated overnight with primary antibody at 4° C., stained with secondary antibodies conjugated to IRDye® Infrared Dyes (LI-COR Biosciences) and then visualized using an Odyssey flatbed scanner (LI-COR Biosciences).
Background: In qPCR the cycle at which signal appears reflects the starting amount.

The test system of assay [5] is MitoBiogenesis. As to the kind of experiment: Expression of 18 MitoBiogenesis genes in melanoma cells (microarray, qRT-PCR, immunoblot). The note with it: for expression of MitoBiogenesis: qRT-PCR, 72 h. Format: cell-based, human. The method, then:
One μg total mRNA was reverse transcribed using a Maxima First Strand cDNA Synthesis Kit for qRT-PCR (Thermo Fisher). Fast SYBR® Green Master Mix (Life Technologies) was used with cDNA template and primers to evaluate the expression of target genes and GAPDH. Primers used were purchased from Integrated DNA Technologies. Amplifications were performed using an Applied Biosystems® 7500 Real-Time PCR System (Life Technologies). All experiments were performed in triplicate. Expression ratios of controls were normalized to 1. Please see Extended Experimental Procedures for the list of PCR primer sequences. Access of Gene Expression Microarray Data and TCGA Melanoma Patients' RNA-seq Data Time-course Illumina gene expression microarray data of WM9 melanoma cells were deposited at the NCBI Gene Expression Omnibus (GEO) (ncbi.nlm.nih.gov/geo/) under the accession number GSE58721. Normalized CCLE gene expression microarray data were directly downloaded from Broad CCLE (broadinstitute.org/ccle). Gene expression microarray data of A375 and SK-MEL-28 melanoma cells were downloaded from GEO under accession numbers GSE42872 and GSE37441, respectively. Gene expression microarray data of Malme-3M and COLO829 melanoma cells were downloaded from GEO under the accession number GSE51113. Normalized RNA-seq data of TCGA melanoma patients were downloaded from TCGA Data Portal (https://tcga-data.nci.nih.gov/tcga/). Cells were washed with ice-cold PBS containing 100 μM Na3VO4 and scraped off culture dishes. After centrifugation, cell pellets were lysed in buffer containing 10 mM Tris-HCl, pH 7.8, 150 mM NaCl, 1 mM EDTA, 1% Nonidet P-40, 1 mM Na3VO4 and protease inhibitors (Roche complete protease inhibitor tablets). Lysates were cleared by micro-centrifugation and protein concentrations were determined with Protein Assay Dye Reagent Concentrate (Bio-Rad). For western blots, 25 μg of each lysate were run on 15-well 10% or 12% SDS-PAGE gels and transferred onto nitrocellulose membranes using a dye fast Trans-BlotR Turbo™ transfer system (Bio-Rad). […]

The subject of another assay is WM9 melanoma cells. Briefly: Induction of apoptosis and cell death by PSVue 643 staining in WM9 melanoma cells. The class given is cell-based, human. The note with it: WM9, 72 h. As to the method:
Adherent melanoma cells were harvested with 0.05% Trypsin-EDTA and were washed once with 1×DPBS. Cells were labeled with CellTrace™ Violet according to the manufacturer's protocol and were allowed to adhere to tissue culture plates overnight following the drug treatment. […] Cells were then immediately subjected to FACS analysis using a BD LSR II flow cytometer and at least 5,000 cells per sample were acquired.
Cell suspensions were kept in the dark at room temperature for 5 min. 0.2 ml 1×PBS supplemented with 10% FBS was added to each cell suspension and cells were immediately analyzed by BD LSRII.
Briefly, autophagic flux was assessed by FACS analysis of WM9 cells expressing the mCherry-eGFPLC3B construct that were transfected with the indicated siRNAs targeting autophagy and ER stress response and treated for 72 h with DMSO or the combination of PLX4720 at 10 μM and PD0325901 at 1 μM. The data represent the average of 2 biological replicates. […] Autophagic flux was assessed by FACS analysis of WM9 cells expressing the mCherry-eGFPLC3B construct treated for 72 h with Gamitrinib at 1 μM or Spautin-1 at 10 μM in combination with PLX4720 at 10 μM/PD0325901 at 1 μM. Cells treated with DMSO were used as the control for setting up the gate.

In a further assay the test system is autophagic flux. Briefly: Autophagic flux in WM9 cells expressing mCherry-eGFP-LC3B. The settings on record: WM9, 72 h, Gamitrinib 1 μM or Spautin-1 10 μM combined with PLX4720 10 μM/PD0325901 1 μM. The class given is cell-based, human. As to the method: WM9 cells stably expressing pLVO-Puro-mCherry-eGFP-LC3 were analyzed with a BD LSR II flow cytometer. Fluorescence of mCherry and eGFP was recorded to derive the ratio of mCherryheight over eGFP-height. This ratio indicates the autophagic flux.
Briefly, autophagic flux was assessed by FACS analysis of WM9 cells expressing the mCherry-eGFPLC3B construct that were transfected with the indicated siRNAs targeting autophagy and ER stress response and treated for 72 h with DMSO or the combination of PLX4720 at 10 μM and PD0325901 at 1 μM. The data represent the average of 2 biological replicates. Induction of apoptosis and cell death was assessed by PSVue 643 staining in WM9 cells expressing the mCherry-eGFP-LC3B construct transfected with the indicated siRNAs targeting autophagy and ER stress response and treated for 72 h with DMSO or the combination of PLX4720 at 10 μM and PD0325901 at 1 μM. Autophagic flux was assessed by FACS analysis of WM9 cells expressing the mCherry-eGFPLC3B construct treated for 72 h with Gamitrinib at 1 μM or Spautin-1 at 10 μM in combination with PLX4720 at 10 μM/PD0325901 at 1 μM. Cells treated with DMSO were used as the control for setting up the gate. Induction of apoptosis and cell death was assessed by PSVue 643 staining in WM9 cells treated for 72 h with Gamitrinib at 1 μM or Spautin-1 at 10 μM in combination with PLX4720 at 10 μM/PD0325901 at 1 μM. […]

The subject of assay [6] is BRAF(V600E), BRAF(wild type), c-RAF, VEGFR2, PDGFR, CSF1R, RET, c-KIT, SRC, STE20. The settings on record: range over several intracellular kinases; cited from earlier work.
In assay [7] the test system is BRAFV600E, VEGFR2, PDGFRB, c-KIT. The settings on record: cited from earlier work.
Where [8] appears, read: Table 6, mice treated 15 days, PLX4720 200 mg/kg diet, 2,4-DNP 20 mg/kg QD p.o., alone or combined.

Where two headings read alike, the source gives them in different places.

For the molecule `O=C(NOC[C@H](O)CO)c1ccc(F)c(F)c1Nc1ccc(I)cc1F` [PD0325901], the “drug IC50 of cell lines with higher basal level of MitoBiogenesis versus lower” value (from here on “drug IC50 … of MitoBiogenesis versus lower”) in assay [1] is reported as “significantly lower drug IC50”. The “expression of MitoBiogenesis” value in the assay on MitoBiogenesis [2] is “inhibited”.
With `CCCS(=O)(=O)Nc1ccc(F)c(C(=O)c2c[nH]c3ncc(Cl)cc23)c1F` [PLX4720], in [1], the “drug IC50 … of MitoBiogenesis versus lower” value was “significantly lower drug IC50”. Moreover, the “% T/C (percentages of tumor volumes)” value in assay [3] (setting [8]) came to 51.41%; in assay [3] (Table 7, 17 days, PLX4720 200 mg/kg diet), 56.88%. Also, the “expression of 30 mitochondria respiratory chain complex subunits” value in [4] (WM9, 72 h) is reported as “substantially up-regulated”. Moreover, the “expression of 5 representative mitochondrial respiratory chain complex subunits” value in assay [4] (WM9, PLX4720 10 μM up to 120 h) is reported as “up-regulated”. In addition, the “expression of MitoBiogenesis” value in the assay with MitoBiogenesis [5] (A375 cells) is “decreased the expression of MitoBiogenesis”; in the assay on MitoBiogenesis [5] (WM793 or WM9 cells) it was “up-regulated MitoBiogenesis”. For the same molecule, in the assay on MitoBiogenesis [5] (WM9 cells, PLX4720 10 μM, 72 h time course, immunoblotting), the “expression of MitoBiogenesis (protein)” value is “up-regulated in a time-dependent manner”.
For `Fc1ccc(CNc2ncnc3ccc(F)cc23)cc1` [Spautin-1, reference compound], the “induction of apoptosis and cell death” value with WM9 melanoma cells (Spautin-1 10 μM combined with PLX4720 10 μM/PD0325901 1 μM) is “not able to trigger a significant induction of apoptosis and cell death”. In addition, the autophagic flux result in the assay on autophagic flux is “effectively decreased the autophagic flux”.
What is called IC50 is the concentration that inhibits the measured activity by half. For `Cn1c(Nc2ccc(C(F)(F)F)cc2)nc2cc(Oc3ccnc(-c4ncc(C(F)(F)F)[nH]4)c3)ccc21` [RAF265], the “drug IC50 … of MitoBiogenesis versus lower” value in [1] is recorded as “significantly lower drug IC50”. In addition, the IC50 in assay [6] is […]. Moreover, the “potency in cell-based assays” value in [7] (BRAFV600E and VEGFR2) is “most potent”; in assay [7] (PDGFRB and c-KIT), “less active”.
In the case of `N=C(N)NC(=N)NCCc1ccccc1` [Phenformin, 1-phenethylbiguanide], the “apoptosis and cell death, compared with other inhibitors of the drug screen” value in the assay with WM9 melanoma cells (titrated doses combined with MAPK pathway inhibitors (PLX4720 10 μM, PD0325901 1 μM)) was “greater increase in apoptosis and cell death”.
For the molecule `CC(=O)N[C@@H](CS)C(=O)O` [NAC, N-acetyl-L-cysteine], the “apoptosis and cell death induced by the combination of Gamitrinib and MAPK pathway inhibitors” value with WM9 melanoma cells (NAC 5 mM) is “markedly suppress apoptosis and cell death”.
Regarding `O=[N+]([O-])c1ccc(O)c([N+](=O)[O-])c1` [2,4-DNP, 2,4-dinitrophenol], the tumor growth result in assay [3] (2,4-DNP alone or with PLX4720, combination compared to PLX4720 alone) is “failed to inhibit tumor growth”. For the same molecule, the “% T/C (percentages of tumor volumes)” value in assay [3] (setting [8]) was 101.96%.
